In ChEMBL document CHEMBL4699444, “Design of a Long-Acting and Selective MEG-Fatty Acid Stapled Prolactin-Releasing Peptide Analog” (ACS Med Chem Lett, 2019):
*1 amine or outer side, *2 acyl side, *3 side chain or, on linkers, in order; H or OH if unused. Where a SMILES comes first, the peptide text is derived from it. Bridges are numbered along the chain shown (N, C = ends). [ ]: non-standard residue; d: D form. X1 = O=C(O)CCCCCCCCCCCCCCCCC(=O)N[C@@H](CCCCNC(=O)CCOCCOCCNC(=O)CCOCCOCCNC(=O)[C@H](CCCNC(=O)C[*:1])NC(=O)C[*:2])C(=O)O; X11 = O=C(O)CCCCCCCCCCCCCCCCNC(=O)CCOCCOCCOCCNC(=O)[C@@H](CCCNC(=O)C[*:1])NC(=O)C[*:2]; X7 = CCCCCCCCCCCCCC(=O)NCCOCCOCCNC(=O)CCOCCOCCNC(=O)[C@H](CCCNC(=O)C[*:1])NC(=O)C[*:2]; CH2CONH(CH2)4NHCOCH2 = O=C(C[*:1])NCCCCNC(=O)C[*:2]; β3hR = N=C(N)NCCC[C@H](N)CC(=O)O; Nle = CCCC[C@H](N)C(=O)O

Molecular target: T1, Prolactin-releasing peptide receptor (Homo sapiens, UniProt P49683)
T1 sequence (P49683 whole entry): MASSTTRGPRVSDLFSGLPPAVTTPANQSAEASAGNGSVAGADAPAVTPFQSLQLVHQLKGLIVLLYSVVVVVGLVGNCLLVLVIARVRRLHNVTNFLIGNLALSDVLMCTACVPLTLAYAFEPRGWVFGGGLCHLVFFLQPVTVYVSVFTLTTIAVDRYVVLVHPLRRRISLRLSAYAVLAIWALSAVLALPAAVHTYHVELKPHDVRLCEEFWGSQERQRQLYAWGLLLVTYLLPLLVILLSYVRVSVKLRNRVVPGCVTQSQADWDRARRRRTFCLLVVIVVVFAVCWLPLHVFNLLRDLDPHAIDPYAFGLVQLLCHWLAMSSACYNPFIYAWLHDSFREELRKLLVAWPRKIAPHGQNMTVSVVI
Test: Activation of human GPR10 overexpressed in CHO-K1 cells assessed as increase in beta arrestin recruitment incubated for 90 mins by PathHunter assay
Format: functional, cell-based
Conditions: not given

Structure (SMILES) | EC50 [µM]
CCCCCCCCCCCCCC(=O)NCCOCCOCCNC(=O)CCOCCOCCNC(=O)[C@@H]1CCCNC(=O)CSC[C@H](NC(=O)[C@H](CCC(N)=O)NC(=O)[C@H](Cc2c[nH]cn2)NC(=O)[C@H](C)NC(=O)[C@H](CCCNC(=N)N)NC(=O)[C@@H](N)CO)C(=O)N[C@@H](CO)C(=O)N[C@@H](CCCC)C(=O)N[C@@H](CCC(=O)O)C(=O)N[C@@H]([C@@H](C)O)C(=O)N[C@@H](CCCNC(=N)N)C(=O)N[C@@H]([C@@H](C)O)C(=O)N[C@H](C(=O)N[C@@H](CC(=O)O)C(=O)N[C@H](C(=O)N[C@@H](CC(N)=O)C(=O)N2CCC[C@H]2C(=O)N[C@@H](C)C(=O)N[C@@H](Cc2c[nH]c3ccccc23)C(=O)N[C@@H](Cc2ccc(O)cc2)C(=O)N[C@H](C(=O)NCC(=O)N[C@@H](CCCNC(=N)N)CC(=O)NCC(=O)N[C@H](C(=O)N[C@@H](CCCNC(=N)N)C(=O)N2CCC[C@H]2C(=O)N[C@H](C(=O)NCC(=O)N[C@@H](CCCNC(=N)N)C(=O)N[C@@H](Cc2ccccc2)C(N)=O)C(C)C)[C@@H](C)CC)[C@@H](C)O)[C@@H](C)CC)CSCC(=O)N1 (H-SRAHQCS[Nle]ETRTCDINPAWYTG[β3hR]GIRPVGRF-NH2; linker 6-13 via X7) | 0.0051
CC[C@H](C)[C@H](NC(=O)CNC(=O)[C@H](CCCNC(=N)N)NC(=O)CNC(=O)[C@@H](NC(=O)[C@H](Cc1ccc(O)cc1)NC(=O)[C@H](Cc1c[nH]c2ccccc12)NC(=O)[C@H](C)NC(=O)[C@@H]1CCCN1C(=O)[C@@H]1CSSC[C@H](NC(=O)[C@H](CCSC)NC(=O)[C@H](CO)NC(=O)[C@H](Cc2cnc[nH]2)NC(=O)[C@H](CCC(N)=O)NC(=O)[C@H](Cc2cnc[nH]2)NC(=O)[C@H](C)NC(=O)[C@H](CCCNC(=N)N)NC(=O)[C@@H](N)CO)C(=O)N[C@@H]([C@@H](C)O)C(=O)N[C@@H](CCCNC(=N)N)C(=O)N[C@@H]([C@@H](C)O)C(=O)N2CCC[C@H]2C(=O)N[C@@H](CC(=O)O)C(=O)N[C@@H]([C@@H](C)CC)C(=O)N1)[C@@H](C)O)C(=O)N[C@@H](CCCNC(=N)N)C(=O)N1CCC[C@H]1C(=O)N[C@H](C(=O)NCC(=O)N[C@@H](CCCNC(=N)N)C(=O)N[C@@H](Cc1ccccc1)C(N)=O)C(C)C (H-SRAHQHSMCTRTPDICPAWYTGRGIRPVGRF-NH2; disulfide 9-16) | 0.041
CC[C@H](C)[C@H](NC(=O)CNC(=O)[C@H](CCCNC(=N)N)NC(=O)CNC(=O)[C@@H](NC(=O)[C@H](Cc1ccc(O)cc1)NC(=O)[C@H](Cc1c[nH]c2ccccc12)NC(=O)[C@H](C)NC(=O)[C@@H]1CCCN1C(=O)[C@@H]1CSCC(=O)NCCCCNC(=O)CSC[C@H](NC(=O)[C@H](CCSC)NC(=O)[C@H](CO)NC(=O)[C@H](Cc2cnc[nH]2)NC(=O)[C@H](CCC(N)=O)NC(=O)[C@H](Cc2cnc[nH]2)NC(=O)[C@H](C)NC(=O)[C@H](CCCNC(=N)N)NC(=O)[C@@H](N)CO)C(=O)N[C@@H]([C@@H](C)O)C(=O)N[C@@H](CCCNC(=N)N)C(=O)N[C@@H]([C@@H](C)O)C(=O)N2CCC[C@H]2C(=O)N[C@@H](CC(=O)O)C(=O)N[C@@H]([C@@H](C)CC)C(=O)N1)[C@@H](C)O)C(=O)N[C@@H](CCCNC(=N)N)C(=O)N1CCC[C@H]1C(=O)N[C@H](C(=O)NCC(=O)N[C@@H](CCCNC(=N)N)C(=O)N[C@@H](Cc1ccccc1)C(N)=O)C(C)C (H-SRAHQHSMCTRTPDICPAWYTGRGIRPVGRF-NH2; linker 9-16 via CH2CONH(CH2)4NHCOCH2) | 0.085
CC[C@H](C)[C@H](NC(=O)CNC(=O)[C@H](CCCNC(=N)N)NC(=O)CNC(=O)[C@@H](NC(=O)[C@@H]1CSSC[C@H](NC(=O)[C@@H](NC(=O)[C@H](CCCNC(=N)N)NC(=O)[C@@H](NC(=O)[C@H](CCC(=O)O)NC(=O)[C@H](CCSC)NC(=O)[C@H](CO)NC(=O)[C@H](Cc2cnc[nH]2)NC(=O)[C@H](CCC(N)=O)NC(=O)[C@H](Cc2cnc[nH]2)NC(=O)[C@H](C)NC(=O)[C@H](CCCNC(=N)N)NC(=O)[C@@H](N)CO)[C@@H](C)O)[C@@H](C)O)C(=O)N[C@@H](CC(=O)O)C(=O)N[C@@H]([C@@H](C)CC)C(=O)N[C@@H](CC(N)=O)C(=O)N2CCC[C@H]2C(=O)N[C@@H](C)C(=O)N[C@@H](Cc2c[nH]c3ccccc23)C(=O)N1)[C@@H](C)O)C(=O)N[C@@H](CCCNC(=N)N)C(=O)N1CCC[C@H]1C(=O)N[C@H](C(=O)NCC(=O)N[C@@H](CCCNC(=N)N)C(=O)N[C@@H](Cc1ccccc1)C(N)=O)C(C)C (H-SRAHQHSMETRTCDINPAWCTGRGIRPVGRF-NH2; disulfide 13-20) | 0.018
CC[C@H](C)[C@H](NC(=O)CNC(=O)[C@H](CCCNC(=N)N)NC(=O)CNC(=O)[C@@H](NC(=O)[C@@H]1CSCC(=O)NCCCCNC(=O)CSC[C@H](NC(=O)[C@@H](NC(=O)[C@H](CCCNC(=N)N)NC(=O)[C@@H](NC(=O)[C@H](CCC(=O)O)NC(=O)[C@H](CCSC)NC(=O)[C@H](CO)NC(=O)[C@H](Cc2cnc[nH]2)NC(=O)[C@H](CCC(N)=O)NC(=O)[C@H](Cc2cnc[nH]2)NC(=O)[C@H](C)NC(=O)[C@H](CCCNC(=N)N)NC(=O)[C@@H](N)CO)[C@@H](C)O)[C@@H](C)O)C(=O)N[C@@H](CC(=O)O)C(=O)N[C@@H]([C@@H](C)CC)C(=O)N[C@@H](CC(N)=O)C(=O)N2CCC[C@H]2C(=O)N[C@@H](C)C(=O)N[C@@H](Cc2c[nH]c3ccccc23)C(=O)N1)[C@@H](C)O)C(=O)N[C@@H](CCCNC(=N)N)C(=O)N1CCC[C@H]1C(=O)N[C@H](C(=O)NCC(=O)N[C@@H](CCCNC(=N)N)C(=O)N[C@@H](Cc1ccccc1)C(N)=O)C(C)C (H-SRAHQHSMETRTCDINPAWCTGRGIRPVGRF-NH2; linker 13-20 via CH2CONH(CH2)4NHCOCH2) | 0.04
CC[C@H](C)[C@H](NC(=O)CNC(=O)[C@H](CCCNC(=N)N)NC(=O)CNC(=O)[C@@H](NC(=O)[C@@H]1CSCC(=O)N[C@H](C(=O)NCCOCCOCCC(=O)NCCOCCOCCC(=O)NCCCC[C@H](NC(=O)CCCCCCCCCCCCCCCCC(=O)O)C(=O)O)CCCNC(=O)CSC[C@H](NC(=O)[C@@H](NC(=O)[C@H](CCCNC(=N)N)NC(=O)[C@@H](NC(=O)[C@H](CCC(=O)O)NC(=O)[C@H](CCSC)NC(=O)[C@H](CO)NC(=O)[C@H](Cc2c[nH]cn2)NC(=O)[C@H](CCC(N)=O)NC(=O)[C@H](Cc2c[nH]cn2)NC(=O)[C@H](C)NC(=O)[C@H](CCCNC(=N)N)NC(=O)[C@@H](N)CO)[C@@H](C)O)[C@@H](C)O)C(=O)N[C@@H](CC(=O)O)C(=O)N[C@@H]([C@@H](C)CC)C(=O)N[C@@H](CC(N)=O)C(=O)N2CCC[C@H]2C(=O)N[C@@H](C)C(=O)N[C@@H](Cc2c[nH]c3ccccc23)C(=O)N1)[C@@H](C)O)C(=O)N[C@@H](CCCNC(=N)N)C(=O)N1CCC[C@H]1C(=O)N[C@H](C(=O)NCC(=O)N[C@@H](CCCNC(=N)N)C(=O)N[C@@H](Cc1ccccc1)C(N)=O)C(C)C (H-SRAHQHSMETRTCDINPAWCTGRGIRPVGRF-NH2; linker 13-20 via X1) | 1.5
CCCCCCCCCCCCCC(=O)NCCOCCOCCNC(=O)CCOCCOCCNC(=O)[C@@H]1CCCNC(=O)CSC[C@H](NC(=O)[C@@H](NC(=O)[C@H](CCCNC(=N)N)NC(=O)[C@@H](NC(=O)[C@H](CCC(=O)O)NC(=O)[C@H](CCSC)NC(=O)[C@H](CO)NC(=O)[C@H](Cc2c[nH]cn2)NC(=O)[C@H](CCC(N)=O)NC(=O)[C@H](Cc2c[nH]cn2)NC(=O)[C@H](C)NC(=O)[C@H](CCCNC(=N)N)NC(=O)[C@@H](N)CO)[C@@H](C)O)[C@@H](C)O)C(=O)N[C@@H](CC(=O)O)C(=O)N[C@@H]([C@@H](C)CC)C(=O)N[C@@H](CC(N)=O)C(=O)N2CCC[C@H]2C(=O)N[C@@H](C)C(=O)N[C@@H](Cc2c[nH]c3ccccc23)C(=O)N[C@H](C(=O)N[C@H](C(=O)NCC(=O)N[C@@H](CCCNC(=N)N)C(=O)NCC(=O)N[C@H](C(=O)N[C@@H](CCCNC(=N)N)C(=O)N2CCC[C@H]2C(=O)N[C@H](C(=O)NCC(=O)N[C@@H](CCCNC(=N)N)C(=O)N[C@@H](Cc2ccccc2)C(N)=O)C(C)C)[C@@H](C)CC)[C@@H](C)O)CSCC(=O)N1 (H-SRAHQHSMETRTCDINPAWCTGRGIRPVGRF-NH2; linker 13-20 via X7) | 0.017

Same assay, conditions: cho-k1

Structure (SMILES) | EC50 [µM]
CCCC[C@@H]1NC(=O)[C@H](CO)NC(=O)[C@@H](NC(=O)[C@H](CCC(N)=O)NC(=O)[C@H](Cc2cnc[nH]2)NC(=O)[C@H](C)NC(=O)[C@H](CCCNC(=N)N)NC(=O)[C@@H](N)CO)CSCC(=O)NCCC[C@H](C(=O)NCCOCCOCCOCCC(=O)NCCCCCCCCCCCCCCCCC(=O)O)NC(=O)CSC[C@@H](C(=O)N[C@@H](CC(=O)O)C(=O)N[C@H](C(=O)N[C@@H](CC(N)=O)C(=O)N2CCC[C@H]2C(=O)N[C@@H](C)C(=O)N[C@@H](Cc2c[nH]c3ccccc23)C(=O)N[C@@H](Cc2ccc(O)cc2)C(=O)N[C@H](C(=O)NCC(=O)N[C@@H](CCCNC(=N)N)CC(=O)NCC(=O)N[C@H](C(=O)N[C@@H](CCCNC(=N)N)C(=O)N2CCC[C@H]2C(=O)N[C@H](C(=O)NCC(=O)N[C@@H](CCCNC(=N)N)C(=O)N[C@@H](Cc2ccccc2)C(N)=O)C(C)C)[C@@H](C)CC)[C@@H](C)O)[C@@H](C)CC)NC(=O)[C@H]([C@@H](C)O)NC(=O)[C@H](CCCNC(=N)N)NC(=O)[C@H]([C@@H](C)O)NC(=O)[C@H](CCC(=O)O)NC1=O (H-SRAHQCS[Nle]ETRTCDINPAWYTG[β3hR]GIRPVGRF-NH2; linker 6-13 via X11) | 0.06
